From the kinase profiling compilation of Christmann-Franck et al. (2016)

Tests used:
Assay in all cases: radiometric filter-binding kinase assay, Kinase HotSpot
ACVR1B (human) = ACVR1B (human) (UniProt P36896); details: compound 0.5 µM; ATP 10 µM
ACVRL1 (human) = ACVRL1 (human) (UniProt P37023); details: compound 0.5 µM; ATP 10 µM
AKT1 (human) = AKT1 (human) (UniProt P31749); details: compound 0.5 µM; ATP 10 µM
ALK (human) = ALK (human) (UniProt Q9UM73); details: compound 0.5 µM; ATP 10 µM
BTK (human) = BTK (human) (UniProt Q06187); details: compound 0.5 µM; ATP 10 µM
Chain of BTK (human) (Q06187 whole entry, looked up): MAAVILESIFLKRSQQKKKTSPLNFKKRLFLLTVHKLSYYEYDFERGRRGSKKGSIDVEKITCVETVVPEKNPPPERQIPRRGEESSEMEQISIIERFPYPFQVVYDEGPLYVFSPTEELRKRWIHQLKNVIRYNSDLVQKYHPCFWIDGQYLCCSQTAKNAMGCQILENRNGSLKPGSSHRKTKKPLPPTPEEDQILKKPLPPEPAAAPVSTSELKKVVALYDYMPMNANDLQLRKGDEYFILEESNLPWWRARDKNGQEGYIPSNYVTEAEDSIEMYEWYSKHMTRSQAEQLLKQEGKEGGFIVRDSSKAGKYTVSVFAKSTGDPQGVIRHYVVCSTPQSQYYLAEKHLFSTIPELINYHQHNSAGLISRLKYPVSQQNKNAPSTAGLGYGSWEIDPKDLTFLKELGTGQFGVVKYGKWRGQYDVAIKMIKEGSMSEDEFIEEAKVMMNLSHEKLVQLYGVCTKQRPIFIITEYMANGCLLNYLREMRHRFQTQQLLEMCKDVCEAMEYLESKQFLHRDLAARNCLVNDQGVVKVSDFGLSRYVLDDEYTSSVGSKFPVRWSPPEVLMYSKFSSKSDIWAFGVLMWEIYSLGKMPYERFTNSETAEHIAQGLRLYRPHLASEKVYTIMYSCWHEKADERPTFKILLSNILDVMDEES

CAMK2G (human) = CAMK2G (human) (UniProt Q13555); details: compound 0.5 µM; ATP 10 µM
CDC42BPA (human) = CDC42BPA (human) (UniProt Q5VT25); details: compound 0.5 µM; ATP 10 µM
CDK1 CCNB1 (human) = CDK1 CCNB1 (human) (UniProt P06493+P14635); details: compound 0.5 µM
Chain of CDK1 CCNB1 (human) (P06493 whole entry, looked up): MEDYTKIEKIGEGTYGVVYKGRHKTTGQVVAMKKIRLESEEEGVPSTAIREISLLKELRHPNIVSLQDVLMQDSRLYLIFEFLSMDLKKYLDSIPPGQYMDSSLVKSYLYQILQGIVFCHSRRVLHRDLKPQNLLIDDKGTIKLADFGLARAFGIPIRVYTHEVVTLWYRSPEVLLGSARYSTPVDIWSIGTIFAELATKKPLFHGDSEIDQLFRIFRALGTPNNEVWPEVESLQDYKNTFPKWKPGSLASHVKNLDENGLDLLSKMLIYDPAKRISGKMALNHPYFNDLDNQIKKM
Chain of CDK1 CCNB1 (human) (P14635 whole entry, looked up): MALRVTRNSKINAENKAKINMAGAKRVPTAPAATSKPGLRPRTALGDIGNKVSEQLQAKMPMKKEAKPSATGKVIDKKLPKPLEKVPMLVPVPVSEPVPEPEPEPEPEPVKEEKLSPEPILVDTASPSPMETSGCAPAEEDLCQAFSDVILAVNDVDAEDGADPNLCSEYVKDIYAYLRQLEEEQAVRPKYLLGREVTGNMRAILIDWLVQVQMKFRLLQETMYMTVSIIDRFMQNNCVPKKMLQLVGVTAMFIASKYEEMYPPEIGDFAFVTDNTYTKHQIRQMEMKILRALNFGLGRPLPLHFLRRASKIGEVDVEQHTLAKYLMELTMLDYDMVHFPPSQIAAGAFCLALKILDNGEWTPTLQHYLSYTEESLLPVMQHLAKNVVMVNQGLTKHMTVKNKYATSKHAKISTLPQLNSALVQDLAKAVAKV

CHEK2 (human) = CHEK2 (human) (UniProt O96017); details: compound 0.5 µM; ATP 10 µM
CSNK1G2 (human) = CSNK1G2 (human) (UniProt P78368); details: compound 0.5 µM; ATP 10 µM
DCLK2 (human) = DCLK2 (human) (UniProt Q8N568); details: compound 0.5 µM; ATP 10 µM
DYRK1A (human) = DYRK1A (human) (UniProt Q13627); details: compound 0.5 µM; ATP 10 µM
DYRK2 (human) = DYRK2 (human) (UniProt Q92630); details: compound 0.5 µM; ATP 10 µM
EPHA4 (human) = EPHA4 (human) (UniProt P54764); details: compound 0.5 µM; ATP 10 µM
EPHA8 (human) = EPHA8 (human) (UniProt P29322); details: compound 0.5 µM; ATP 10 µM
FGR (human) = FGR (human) (UniProt P09769); details: compound 0.5 µM; ATP 10 µM
IKBKE (human) = IKBKE (human) (UniProt Q14164); details: compound 0.5 µM; ATP 10 µM
KDR (human) = KDR (human) (UniProt P35968); details: compound 0.5 µM; ATP 10 µM
MAP3K7 TAB1 (human) = MAP3K7 TAB1 (human) (UniProt O43318+Q15750); details: compound 0.5 µM; ATP 10 µM
MAP3K8 (human) = MAP3K8 (human) (UniProt P41279); details: compound 0.5 µM; ATP 10 µM
MAP4K2 (human) = MAP4K2 (human) (UniProt Q12851); details: compound 0.5 µM; ATP 10 µM
MAP4K4 (human) = MAP4K4 (human) (UniProt O95819); details: compound 0.5 µM; ATP 10 µM
MAPK11 (human) = MAPK11 (human) (UniProt Q15759); details: compound 0.5 µM; ATP 10 µM
Chain of MAPK11 (human) (Q15759 whole entry, looked up): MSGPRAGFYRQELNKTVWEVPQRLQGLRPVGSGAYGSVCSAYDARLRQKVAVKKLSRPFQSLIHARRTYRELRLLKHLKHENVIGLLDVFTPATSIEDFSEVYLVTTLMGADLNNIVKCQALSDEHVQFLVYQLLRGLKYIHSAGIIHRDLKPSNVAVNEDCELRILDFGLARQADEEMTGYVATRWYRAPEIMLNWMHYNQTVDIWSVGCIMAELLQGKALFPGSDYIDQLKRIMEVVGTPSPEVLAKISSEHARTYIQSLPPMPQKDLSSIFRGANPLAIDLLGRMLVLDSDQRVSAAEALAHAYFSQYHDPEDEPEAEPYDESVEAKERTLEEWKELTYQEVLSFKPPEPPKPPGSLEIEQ

MAPK3 (human) = MAPK3 (human) (UniProt P27361); details: compound 0.5 µM; ATP 10 µM
Chain of MAPK3 (human) (P27361 whole entry, looked up): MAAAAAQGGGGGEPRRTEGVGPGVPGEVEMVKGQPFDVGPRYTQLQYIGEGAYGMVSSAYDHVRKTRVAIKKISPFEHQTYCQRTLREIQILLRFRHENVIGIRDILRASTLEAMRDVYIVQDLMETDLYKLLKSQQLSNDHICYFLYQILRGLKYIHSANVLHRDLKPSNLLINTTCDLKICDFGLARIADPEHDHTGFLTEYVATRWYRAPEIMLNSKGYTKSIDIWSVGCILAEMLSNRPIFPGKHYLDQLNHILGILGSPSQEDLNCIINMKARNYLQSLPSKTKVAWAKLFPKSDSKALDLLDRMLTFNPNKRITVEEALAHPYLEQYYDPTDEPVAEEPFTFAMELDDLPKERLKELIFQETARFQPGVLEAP

MAPK8 (human) = MAPK8 (human) (UniProt P45983); details: compound 0.5 µM; ATP 10 µM
MET (human) = MET (human) (UniProt P08581); details: compound 0.5 µM; ATP 10 µM
MUSK (human) = MUSK (human) (UniProt O15146); details: compound 0.5 µM; ATP 10 µM
PAK1 (human) = PAK1 (human) (UniProt Q13153); details: compound 0.5 µM; ATP 10 µM
PDGFRA (human) = PDGFRA (human) (UniProt P16234); details: compound 0.5 µM; ATP 10 µM
PLK3 (human) = PLK3 (human) (UniProt Q9H4B4); details: compound 0.5 µM; ATP 10 µM
PNCK (human) = PNCK (human) (UniProt Q6P2M8); details: compound 0.5 µM; ATP 10 µM
PRKCZ (human) = PRKCZ (human) (UniProt Q05513); details: compound 0.5 µM; ATP 10 µM
PRKD2 (human) = PRKD2 (human) (UniProt Q9BZL6); details: compound 0.5 µM; ATP 10 µM
Chain of PRKD2 (human) (Q9BZL6 whole entry, looked up): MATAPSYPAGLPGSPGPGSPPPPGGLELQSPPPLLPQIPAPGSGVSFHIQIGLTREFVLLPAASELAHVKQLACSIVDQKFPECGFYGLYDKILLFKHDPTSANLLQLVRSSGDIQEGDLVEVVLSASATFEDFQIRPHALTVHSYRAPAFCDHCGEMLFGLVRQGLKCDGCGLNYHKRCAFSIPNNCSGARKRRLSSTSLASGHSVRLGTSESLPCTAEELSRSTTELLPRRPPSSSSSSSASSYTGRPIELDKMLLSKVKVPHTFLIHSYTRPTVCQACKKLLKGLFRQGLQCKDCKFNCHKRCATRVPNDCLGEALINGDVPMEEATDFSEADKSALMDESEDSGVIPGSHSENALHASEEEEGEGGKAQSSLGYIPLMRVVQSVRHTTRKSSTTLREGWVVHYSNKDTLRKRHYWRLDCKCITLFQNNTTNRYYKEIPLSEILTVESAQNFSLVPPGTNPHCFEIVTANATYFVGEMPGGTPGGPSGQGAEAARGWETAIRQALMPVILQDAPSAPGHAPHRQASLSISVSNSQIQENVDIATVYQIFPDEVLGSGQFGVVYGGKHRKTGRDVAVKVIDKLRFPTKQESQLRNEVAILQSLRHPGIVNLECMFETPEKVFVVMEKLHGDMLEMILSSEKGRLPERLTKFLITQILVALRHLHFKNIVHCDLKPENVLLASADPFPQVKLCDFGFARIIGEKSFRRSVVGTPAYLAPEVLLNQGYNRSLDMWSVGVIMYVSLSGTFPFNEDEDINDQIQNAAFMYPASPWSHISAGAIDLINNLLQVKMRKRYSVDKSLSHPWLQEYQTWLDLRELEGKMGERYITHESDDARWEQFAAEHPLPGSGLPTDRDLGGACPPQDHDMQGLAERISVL

RAF1 (human) = RAF1 (human) (UniProt P04049); details: compound 0.5 µM; ATP 10 µM
ROS1 (human) = ROS1 (human) (UniProt P08922); details: compound 0.5 µM; ATP 10 µM
SGK2 (human) = SGK2 (human) (UniProt Q9HBY8); details: compound 0.5 µM; ATP 10 µM
SGK3 (human) = SGK3 (human) (UniProt Q96BR1); details: compound 0.5 µM; ATP 10 µM
Chain of SGK3 (human) (Q96BR1 whole entry, looked up): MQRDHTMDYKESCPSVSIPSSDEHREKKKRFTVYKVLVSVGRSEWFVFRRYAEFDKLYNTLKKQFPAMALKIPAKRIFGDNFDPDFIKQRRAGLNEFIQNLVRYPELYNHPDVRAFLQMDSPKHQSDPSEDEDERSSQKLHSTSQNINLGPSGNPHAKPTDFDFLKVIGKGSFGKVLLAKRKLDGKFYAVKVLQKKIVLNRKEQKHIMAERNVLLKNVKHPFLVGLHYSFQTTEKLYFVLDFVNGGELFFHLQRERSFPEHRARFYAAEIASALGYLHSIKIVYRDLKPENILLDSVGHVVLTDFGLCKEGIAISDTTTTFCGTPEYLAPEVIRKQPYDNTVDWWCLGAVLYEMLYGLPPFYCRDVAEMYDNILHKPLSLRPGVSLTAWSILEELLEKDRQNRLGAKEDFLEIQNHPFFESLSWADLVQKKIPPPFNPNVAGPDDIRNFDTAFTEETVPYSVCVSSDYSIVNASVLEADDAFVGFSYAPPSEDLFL

SRC (human) = SRC (human) (UniProt P12931); details: compound 0.5 µM; ATP 10 µM
Chain of SRC (human) (P12931 whole entry, looked up): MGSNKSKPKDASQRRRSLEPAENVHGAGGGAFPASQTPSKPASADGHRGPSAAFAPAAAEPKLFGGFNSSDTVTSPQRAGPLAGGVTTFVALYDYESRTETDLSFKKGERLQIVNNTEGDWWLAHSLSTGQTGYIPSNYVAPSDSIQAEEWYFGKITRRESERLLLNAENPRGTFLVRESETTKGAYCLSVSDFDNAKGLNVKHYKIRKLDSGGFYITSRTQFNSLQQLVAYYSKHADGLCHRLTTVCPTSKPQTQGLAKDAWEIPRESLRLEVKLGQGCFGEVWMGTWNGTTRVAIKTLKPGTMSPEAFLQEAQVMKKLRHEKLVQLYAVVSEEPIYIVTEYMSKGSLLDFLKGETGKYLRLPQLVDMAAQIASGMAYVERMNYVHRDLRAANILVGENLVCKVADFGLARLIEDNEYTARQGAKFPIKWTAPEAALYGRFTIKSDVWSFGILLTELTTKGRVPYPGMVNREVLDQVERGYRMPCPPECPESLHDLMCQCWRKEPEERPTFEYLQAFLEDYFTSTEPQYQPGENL

STK10 (human) = STK10 (human) (UniProt O94804); details: compound 0.5 µM; ATP 10 µM
Chain of STK10 (human) (O94804 whole entry, looked up): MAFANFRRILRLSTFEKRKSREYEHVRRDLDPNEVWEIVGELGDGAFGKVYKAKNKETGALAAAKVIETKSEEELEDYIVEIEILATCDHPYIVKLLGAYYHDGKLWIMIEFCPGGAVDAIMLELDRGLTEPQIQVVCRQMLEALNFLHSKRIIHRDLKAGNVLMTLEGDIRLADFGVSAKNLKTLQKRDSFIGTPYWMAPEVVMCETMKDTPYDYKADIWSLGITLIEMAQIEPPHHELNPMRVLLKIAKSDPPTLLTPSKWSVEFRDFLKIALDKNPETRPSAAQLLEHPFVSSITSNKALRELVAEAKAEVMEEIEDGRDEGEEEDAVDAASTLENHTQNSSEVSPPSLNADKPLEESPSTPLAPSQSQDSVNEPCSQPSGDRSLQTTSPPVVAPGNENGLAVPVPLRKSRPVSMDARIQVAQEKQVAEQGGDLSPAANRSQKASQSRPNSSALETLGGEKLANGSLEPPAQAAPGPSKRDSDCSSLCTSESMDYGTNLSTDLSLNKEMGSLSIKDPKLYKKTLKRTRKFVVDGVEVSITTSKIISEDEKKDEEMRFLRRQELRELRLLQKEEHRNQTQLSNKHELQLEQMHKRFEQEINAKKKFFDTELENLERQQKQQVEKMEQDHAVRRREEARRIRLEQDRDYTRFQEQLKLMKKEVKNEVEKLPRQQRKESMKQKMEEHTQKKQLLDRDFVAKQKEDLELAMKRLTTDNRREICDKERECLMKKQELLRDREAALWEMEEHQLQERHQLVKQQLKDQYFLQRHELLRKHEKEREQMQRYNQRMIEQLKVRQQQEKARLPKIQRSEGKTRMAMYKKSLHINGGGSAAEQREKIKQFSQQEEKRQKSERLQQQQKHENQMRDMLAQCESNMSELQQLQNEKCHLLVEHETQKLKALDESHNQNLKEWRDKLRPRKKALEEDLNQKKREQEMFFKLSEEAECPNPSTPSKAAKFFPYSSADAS

TAOK2 (human) = TAOK2 (human) (UniProt Q9UL54); details: compound 0.5 µM; ATP 10 µM
ULK1 (human) = ULK1 (human) (UniProt O75385); details: compound 0.5 µM; ATP 10 µM
WNK2 (human) = WNK2 (human) (UniProt Q9Y3S1); details: compound 0.5 µM; ATP 10 µM

Compound N#CCCc1ccc2c(c1)-c1[nH]c3ccc([N+](=O)[O-])cc3c1CC(=O)N2 has a residual activity (ACVR1B (human)) of 110%, a residual activity (ACVRL1 (human)) of 53.6% and a residual activity (AKT1 (human)) of 111%. The residual activity (ALK (human)) was 78.8%, the residual activity (BTK (human)) was 94.6% and the residual activity (CAMK2G (human)) was 66%. For the same compound, the residual activity (CDC42BPA (human)) was 73.1%, the residual activity (CDK1 CCNB1 (human); ATP 10 µM) was 9.89% and the residual activity (CHEK2 (human)) was 12.6%. For the same compound, the residual activity (CSNK1G2 (human)) was 84.8%, the residual activity (DCLK2 (human)) was 104% and the residual activity (DYRK1A (human)) was 85.9%. For the same compound, the residual activity (DYRK2 (human)) was 46.8%, the residual activity (EPHA4 (human)) was 85.2% and the residual activity (EPHA8 (human)) was 105%. It also gave a residual activity (FGR (human)) of 31%, a residual activity (IKBKE (human)) of 89.2% and a residual activity (KDR (human)) of 75.5%. For the same compound, the residual activity (MAP3K7 TAB1 (human)) was 38.1%, the residual activity (MAP3K8 (human)) was 87.5% and the residual activity (MAP4K2 (human)) was 14%. For the same compound, the residual activity (MAP4K4 (human)) was 6.82%, the residual activity (MAPK11 (human)) was 101% and the residual activity (MAPK3 (human)) was 95.1%. For the same compound, the residual activity (MAPK8 (human)) was 93.1%, the residual activity (MET (human)) was 119% and the residual activity (MUSK (human)) was 63%. The residual activity (PAK1 (human)) was 52.1%, the residual activity (PDGFRA (human)) was 87.4% and the residual activity (PLK3 (human)) was 99.7%. It also gave a residual activity (PNCK (human)) of 107%, a residual activity (PRKCZ (human)) of 83.4% and a residual activity (PRKD2 (human)) of 94.2%. It also gave a residual activity (RAF1 (human)) of 104%, a residual activity (ROS1 (human)) of 71% and a residual activity (SGK2 (human)) of 114%. The residual activity (SGK3 (human)) was 99.2%, the residual activity (SRC (human)) was 30.8% and the residual activity (STK10 (human)) was 74.1%. It also gave a residual activity (TAOK2 (human)) of 86.4%, a residual activity (ULK1 (human)) of 94.2% and a residual activity (WNK2 (human)) of 112%.
Work on CCOc1cc2ncnc(Nc3cccc(Br)c3)c2cc1OCC yielded a residual activity (ACVR1B (human)) of 101%, a residual activity (ACVRL1 (human)) of 103% and a residual activity (AKT1 (human)) of 112%. The residual activity (ALK (human)) was 85.8%, the residual activity (BTK (human)) was 72.7% and the residual activity (CAMK2G (human)) was 96.5%. For the same compound, the residual activity (CDC42BPA (human)) was 85.4%, the residual activity (CDK1 CCNB1 (human); ATP 10 µM) was 80.8% and the residual activity (CHEK2 (human)) was 92%. It also gave a residual activity (CSNK1G2 (human)) of 103%, a residual activity (DCLK2 (human)) of 99.5% and a residual activity (DYRK1A (human)) of 98.7%. The residual activity (DYRK2 (human)) was 88.8%, the residual activity (EPHA4 (human)) was 75.1% and the residual activity (EPHA8 (human)) was 87.3%. For the same compound, the residual activity (FGR (human)) was 61.9%, the residual activity (IKBKE (human)) was 98.7% and the residual activity (KDR (human)) was 92%. It also gave a residual activity (MAP3K7 TAB1 (human)) of 102%, a residual activity (MAP3K8 (human)) of 106% and a residual activity (MAP4K2 (human)) of 91.5%. It also gave a residual activity (MAP4K4 (human)) of 67%, a residual activity (MAPK11 (human)) of 89% and a residual activity (MAPK3 (human)) of 113%. The residual activity (MAPK8 (human)) was 90.7%, the residual activity (MET (human)) was 78.6% and the residual activity (MUSK (human)) was 92.6%. The residual activity (PAK1 (human)) was 95.2%, the residual activity (PDGFRA (human)) was 84.7% and the residual activity (PLK3 (human)) was 97.1%. The residual activity (PNCK (human)) was 103%, the residual activity (PRKCZ (human)) was 97.8% and the residual activity (PRKD2 (human)) was 86.9%. For the same compound, the residual activity (RAF1 (human)) was 91.6%, the residual activity (ROS1 (human)) was 102% and the residual activity (SGK2 (human)) was 106%. For the same compound, the residual activity (SGK3 (human)) was 96.7%, the residual activity (SRC (human)) was 74.8% and the residual activity (STK10 (human)) was 30.5%. For the same compound, the residual activity (TAOK2 (human)) was 101%, the residual activity (ULK1 (human)) was 98.8% and the residual activity (WNK2 (human)) was 95.8%.
O=c1[nH]c2ccccc2n1C1CCN(Cc2ccc(-c3nc4cc5[nH]cnc5cc4nc3-c3ccccc3)cc2)CC1 gave a residual activity (ACVR1B (human)) of 111%, a residual activity (ACVRL1 (human)) of 105% and a residual activity (AKT1 (human)) of 114%. For the same compound, the residual activity (ALK (human)) was 106%, the residual activity (BTK (human)) was 98.4% and the residual activity (CAMK2G (human)) was 105%. The residual activity (CDC42BPA (human)) was 105%, the residual activity (CDK1 CCNB1 (human)) was 85% and the residual activity (CHEK2 (human)) was 100%. The residual activity (CSNK1G2 (human)) was 101%, the residual activity (DCLK2 (human)) was 107% and the residual activity (DYRK1A (human)) was 101%. The residual activity (DYRK2 (human)) was 107%, the residual activity (EPHA4 (human)) was 97.1% and the residual activity (EPHA8 (human)) was 106%. For the same compound, the residual activity (FGR (human)) was 95.7%, the residual activity (IKBKE (human)) was 91.9% and the residual activity (KDR (human)) was 90.9%. It also gave a residual activity (MAP3K7 TAB1 (human)) of 84.1%, a residual activity (MAP3K8 (human)) of 95.2% and a residual activity (MAP4K2 (human)) of 105%. It also gave a residual activity (MAP4K4 (human)) of 99.5%, a residual activity (MAPK11 (human)) of 102% and a residual activity (MAPK3 (human)) of 118%. The residual activity (MAPK8 (human)) was 89.6%, the residual activity (MET (human)) was 102% and the residual activity (MUSK (human)) was 96.8%. The residual activity (PAK1 (human)) was 90.6%, the residual activity (PDGFRA (human)) was 98.2% and the residual activity (PLK3 (human)) was 99.1%. For the same compound, the residual activity (PNCK (human)) was 95.5%, the residual activity (PRKCZ (human)) was 102% and the residual activity (PRKD2 (human)) was 109%. The residual activity (RAF1 (human)) was 94.7%, the residual activity (ROS1 (human)) was 101% and the residual activity (SGK2 (human)) was 112%. The residual activity (SGK3 (human)) was 108%, the residual activity (SRC (human)) was 103% and the residual activity (STK10 (human)) was 92.6%. For the same compound, the residual activity (TAOK2 (human)) was 98.8%, the residual activity (ULK1 (human)) was 96.7% and the residual activity (WNK2 (human)) was 115%.
